Source: US10172868B2, “Substituted quinazolines for inhibiting kinase activity” (NeuPharma, Inc., priority 2013, dated 2019)
pIC50: −log10 of the molar value.

How the values were obtained:
EGFR (ErbB1) = EGFR (ErbB1) (Homo sapiens (Human), UniProt P00533); assay: Z'-LYTE kinase inhibition assay, EGFR; assay type: biochemical; conditions: for inhibition at 1 µM: read-out: % inhibition against EGFR (Compound at 1 μM); for inhibition at 0.041 µM: read-out: % inhibition against EGFR (Compound at 0.041 μM); for pIC50: read-out: IC50 against EGFR
EGFR (ErbB1), sequence (P00533 25-1210): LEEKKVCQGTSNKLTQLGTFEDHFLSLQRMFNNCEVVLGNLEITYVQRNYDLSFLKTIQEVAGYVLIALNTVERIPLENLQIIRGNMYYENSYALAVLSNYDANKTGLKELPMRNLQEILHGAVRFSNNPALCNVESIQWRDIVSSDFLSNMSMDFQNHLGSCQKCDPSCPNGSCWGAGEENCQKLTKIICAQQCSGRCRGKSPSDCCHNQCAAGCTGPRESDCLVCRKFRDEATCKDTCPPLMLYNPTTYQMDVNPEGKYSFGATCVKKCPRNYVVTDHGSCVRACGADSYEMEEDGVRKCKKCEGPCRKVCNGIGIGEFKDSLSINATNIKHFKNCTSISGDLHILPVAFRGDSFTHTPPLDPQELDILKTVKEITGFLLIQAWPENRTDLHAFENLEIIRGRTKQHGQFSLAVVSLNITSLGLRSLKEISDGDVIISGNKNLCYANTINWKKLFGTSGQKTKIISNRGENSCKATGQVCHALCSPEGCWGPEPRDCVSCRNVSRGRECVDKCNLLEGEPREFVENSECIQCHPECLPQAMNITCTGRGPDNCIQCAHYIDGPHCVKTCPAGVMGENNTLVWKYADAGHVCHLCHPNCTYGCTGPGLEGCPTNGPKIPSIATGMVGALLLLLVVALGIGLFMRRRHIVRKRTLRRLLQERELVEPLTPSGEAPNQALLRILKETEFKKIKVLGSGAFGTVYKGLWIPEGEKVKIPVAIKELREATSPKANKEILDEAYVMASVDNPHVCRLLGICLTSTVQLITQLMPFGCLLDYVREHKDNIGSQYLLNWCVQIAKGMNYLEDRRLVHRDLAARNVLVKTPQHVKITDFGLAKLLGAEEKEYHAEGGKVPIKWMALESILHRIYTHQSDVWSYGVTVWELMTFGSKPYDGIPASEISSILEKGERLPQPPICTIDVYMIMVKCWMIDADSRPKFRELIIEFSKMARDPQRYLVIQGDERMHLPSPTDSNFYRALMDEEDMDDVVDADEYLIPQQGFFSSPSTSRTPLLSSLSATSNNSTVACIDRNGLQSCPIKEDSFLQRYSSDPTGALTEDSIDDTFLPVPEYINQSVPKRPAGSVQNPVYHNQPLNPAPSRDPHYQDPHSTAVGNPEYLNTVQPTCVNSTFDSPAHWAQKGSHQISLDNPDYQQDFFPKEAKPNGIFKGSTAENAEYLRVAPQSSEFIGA
Summary of the method: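 Z'-LYTE FRET assay run with 1.1-5.25 ng EGFR and 2 μM peptide substrate in 50 mM HEPES pH 7.5, 10 mM MgCl2, 2 mM MnCl2, 1 mM EGTA, 1 mM DTT, 0.01% BRIJ-35, 1% DMSO. Kinase reaction 60 min at room temperature, then 60 min development; IC50 from 10-point 3-fold titrations.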

EGFR (ErbB1) T790M L858R = EGFR (ErbB1) T790M L858R (Homo sapiens (Human), UniProt P00533, L858R/T790M); assay: Z'-LYTE kinase inhibition assay, EGFR L858R/T790M; assay type: biochemical; conditions: for inhibition at 1 µM: read-out: % inhibition against EGFR L858R/T790M (Compound at 1 μM); for inhibition at 0.0137 µM: read-out: % inhibition against EGFR L858R/T790M (Compound at 0.0137 μM); for pIC50: read-out: IC50 against EGFR L858R/T790M
EGFR (ErbB1) T790M L858R, sequence (P00533 25-1210 T790M/L858R): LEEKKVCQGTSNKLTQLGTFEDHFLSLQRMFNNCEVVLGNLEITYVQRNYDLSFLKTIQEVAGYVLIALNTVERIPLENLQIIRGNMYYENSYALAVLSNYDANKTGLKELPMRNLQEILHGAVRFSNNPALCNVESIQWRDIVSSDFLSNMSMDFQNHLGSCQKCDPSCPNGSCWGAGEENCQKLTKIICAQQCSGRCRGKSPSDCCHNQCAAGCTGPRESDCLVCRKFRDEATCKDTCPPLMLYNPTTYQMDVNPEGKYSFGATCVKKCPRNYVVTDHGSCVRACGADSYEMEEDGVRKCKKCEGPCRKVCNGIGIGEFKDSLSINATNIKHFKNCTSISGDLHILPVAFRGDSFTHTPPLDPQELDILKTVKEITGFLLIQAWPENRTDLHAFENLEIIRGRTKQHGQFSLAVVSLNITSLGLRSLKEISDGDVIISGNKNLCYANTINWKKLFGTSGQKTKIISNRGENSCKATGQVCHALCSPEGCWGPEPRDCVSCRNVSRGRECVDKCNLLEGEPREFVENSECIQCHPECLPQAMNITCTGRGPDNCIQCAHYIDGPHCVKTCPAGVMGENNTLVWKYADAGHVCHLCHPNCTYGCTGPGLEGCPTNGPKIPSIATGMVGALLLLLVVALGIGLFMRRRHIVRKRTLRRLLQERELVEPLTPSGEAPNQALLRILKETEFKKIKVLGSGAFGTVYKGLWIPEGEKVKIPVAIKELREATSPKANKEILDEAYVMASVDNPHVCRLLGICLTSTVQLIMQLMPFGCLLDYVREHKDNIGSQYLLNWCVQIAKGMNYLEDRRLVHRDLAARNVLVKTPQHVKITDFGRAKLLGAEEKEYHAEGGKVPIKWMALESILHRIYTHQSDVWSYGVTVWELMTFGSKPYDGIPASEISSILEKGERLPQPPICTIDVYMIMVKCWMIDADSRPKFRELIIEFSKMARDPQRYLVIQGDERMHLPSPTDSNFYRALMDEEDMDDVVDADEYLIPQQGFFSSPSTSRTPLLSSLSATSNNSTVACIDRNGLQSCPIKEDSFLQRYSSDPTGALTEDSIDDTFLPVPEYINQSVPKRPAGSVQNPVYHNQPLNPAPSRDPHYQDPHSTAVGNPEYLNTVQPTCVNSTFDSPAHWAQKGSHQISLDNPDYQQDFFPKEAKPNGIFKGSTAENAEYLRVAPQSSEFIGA
Summary of the method: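 Z'-LYTE FRET peptide assay at 1% DMSO, 10-point 3-fold titrations; kinase/peptide mix in 50 mM HEPES pH 6.5, 0.01% BRIJ-35, 10 mM MgCl2, 1 mM EGTA, 0.02% NaN3. Kinase reaction ran 60 min at room temperature, followed by 60 min development and a fluorescence read. IC50 derived from the concentration series.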

HCC827 cells = assay: cells; conditions: Homo sapiens, HCC827, 72 h, read-out: IC50 in HCC827 cells
H1975 cells = assay: Inhibition of cancer cell growth, MTT assay, H1975; conditions: Homo sapiens, NCI-H1975, 72 h, read-out: IC50 in H1975 cells
Description: Inhibition of cell growth by compounds was measured using MTT assay (Mosmann, T., Journal of Immunological Methods, 1983, 65, 55-63). Tumor cell lines were purchased from ATCC (American Type Culture Collection, Manassas, Va.). All cell lines were maintained in RPMI 1640 (Hyclone) supplemented with 10% fetal bovine serum (FBS, Hyclone), glutamine (2 mM, Hyclone), and antibiotics (penicillin 100 U/mL and streptomycin 50 μg/mL) at 37° C. in a humidified atmosphere of 5% CO2 in air. Taxol (as a positive control. Sigma) and compounds were dissolved in DMSO (Sigma), and the final concentration of DMSO in the medium was 1%. Tumor cells were plated in 96-well plates at densities of about 4000 cells/well of a 96-well plate and allowed to adhere/grow for 24 h. They were then treated with various concentrations of drug for 72 h, 3-(4,5-Dimethylthiazol-2-yl)-2,5-diphenyltetrazolium bromide (MTT, Sigma) was used to determine the number of viable cells at the time of compound addition and the number of cells remaining after 72 h compound exposure. The number of cells remaining after 72 h was compared to the number of viable cells at the time of compound addition by measuring the absorbance at 570 nm, allowing for the calculation of growth inhibition.
All concentrations of compounds were tested in triplicate and controls were averaged over 4 wells. IC50 was calculated by plotting the concentration of compound vs the percentage of inhibition in treated wells using GraphPad Prism 5.

SMILES | inhibition at 1 µM (EGFR (ErbB1)) [%] | inhibition at 1 µM (EGFR (ErbB1) T790M L858R) [%] | pIC50 (HCC827 cells) | pIC50 (H1975 cells) | inhibition at 0.0137 µM (EGFR (ErbB1) T790M L858R) [%] | inhibition at 0.041 µM (EGFR (ErbB1)) [%] | pIC50 (EGFR (ErbB1)) | pIC50 (EGFR (ErbB1) T790M L858R)
C=CC(=O)Nc1cccc(-c2cccc3cnc(Nc4ccc(N5CCOCC5)cc4OC)nc23)c1 [Example C002, N-(3-(2-((2-methoxy-4-morpholinophenyl)amino)quinazolin-8-yl)phenyl)acrylamide] | < 50 | > 50 | 6.30 to 7.00 |  |  |  |  | 
C=CC(=O)Nc1cccc(-c2cccc3cnc(Nc4ccc(N5CCN(C)CC5)nc4)nc23)c1 [Example C041, N-(3-(2-((6-(4-methylpiperazin-1-yl)pyridin-3-yl)amino)quinazolin-8-yl)phenyl)acrylamide] |  |  | > 7.00 | 6.30 to 7.00 |  | > 50 | > 7.00 | > 7.00
C=CC(=O)Nc1cccc(-c2cccc3cnc(Nc4ccc(N5CCN(C)CC5)cc4OC)nc23)c1 [Example C003, N-(3-(2-((2-methoxy-4-(4-methylpiperazin-1-yl)phenyl)amino)quinazolin-8-yl)phenyl)acrylamide] | > 50 | > 50 | > 7.00 | 6.30 to 7.00 | > 50 |  |  | > 7.00
C=CC(=O)Nc1cccc(-c2cccc3cnc(Nc4ccc(N5CCOCC5)cc4)nc23)c1 [Example C001, N-(3-(2-((4-morpholinophenyl)amino)quinazolin-8-yl)phenyl)acrylamide] | > 50 | > 50 | > 7.00 | 6.30 to 7.00 | < 50 |  |  | > 7.00
C=CC(=O)Nc1cccc(-c2nccc3c(N)nc(Nc4ccc(N5CCOCC5)cc4)nc23)c1 [Example C005, N-(3-(4-amino-2-((4-morpholinophenyl)amino)pyrido[3,4-d]pyrimidin-8-yl)phenyl)acrylamide] | > 50 | < 50 | 6.30 to 7.00 | < 6.30 |  |  |  | 
Fc1ccc(Cl)cc1-c1cccc2cnc(Nc3ccc(N4CCOCC4)cc3)nc12 [Example C007, 8-(5-chloro-2-fluorophenyl)-N-(4-morpholinophenyl)quinazolin-2-amine] | < 50 | < 50 | < 6.30 | < 6.30 |  |  |  | 
C=CC(=O)Nc1cccc(-c2cccc3cnc(Nc4ccc(N5CCN(C)CC5)cc4)nc23)c1 [Example C021, N-(3-(2-((4-(4-methylpiperazin-1-yl)phenyl)amino)quinazolin-8-yl)phenyl)acrylamide] |  |  | > 7.00 | > 7.00 |  | > 50 | > 7.00 | > 7.00
C=CC(=O)Nc1cccc(-c2cccc3cnc(Nc4ccc(N5CCN(CCO)CC5)cc4)nc23)c1 [Example C059, N-(3-(2-((4-(4-(2-hydroxyethyl)piperazin-1-yl)phenyl)amino)quinazolin-8-yl)phenyl)acrylamide] |  |  | > 7.00 | > 7.00 |  | > 50 | > 7.00 | > 7.00
c1ccc(-c2cccc3cnc(Nc4ccc(N5CCOCC5)cc4)nc23)cc1 [Example C004, N-(4-morpholinophenyl)-8-phenylquinazolin-2-amine] | < 50 | > 50 | < 6.30 | < 6.30 |  |  |  | 

The next lines start with results.

inhibition at 1 µM (EGFR (ErbB1)) [%] | inhibition at 1 µM (EGFR (ErbB1) T790M L858R) [%] | pIC50 (HCC827 cells) | pIC50 (H1975 cells) | inhibition at 0.0137 µM (EGFR (ErbB1) T790M L858R) [%] | SMILES | inhibition at 0.041 µM (EGFR (ErbB1)) [%] | pIC50 (EGFR (ErbB1)) | pIC50 (EGFR (ErbB1) T790M L858R)
< 50 | < 50 | < 6.30 | < 6.30 |  | Fc1cccc(-c2cccc3cnc(Nc4ccc(N5CCOCC5)cc4)nc23)c1 [Example C009, 8-(3-fluorophenyl)-N-(4-morpholinophenyl)quinazolin-2-amine] |  |  | 
> 50 | > 50 |  | > 7.00 | > 50 | C=CC(=O)Nc1cccc(-c2cccc3cnc(Nc4ccc(N5CCN(CCF)CC5)cc4)nc23)c1 [Example C053, N-(3-(2-((4-(4-(2-fluoroethyl)piperazin-1-yl)phenyl)amino)quinazolin-8-yl)phenyl)acrylamide] | < 50 |  | 
 |  |  | > 7.00 | > 50 | C=CC(=O)Nc1cccc(-c2cccc3cnc(Nc4ccc(N5CCN(C)CC5)cc4F)nc23)c1 [Example C044, N-(3-(2-((2-fluoro-4-(4-methylpiperazin-1-yl)phenyl)amino)quinazolin-8-yl)phenyl)acrylamide] | > 50 | > 7.00 | > 7.00
< 50 | < 50 | < 6.30 | < 6.30 |  | Clc1ccccc1-c1cccc2cnc(Nc3ccc(N4CCOCC4)cc3)nc12 [Example C011, 8-(2-chlorophenyl)-N-(4-morpholinophenyl)quinazolin-2-amine] |  |  | 
< 50 | < 50 | < 6.30 | < 6.30 |  | Clc1cccc(-c2cccc3cnc(Nc4ccc(N5CCOCC5)cc4)nc23)c1 [Example C008, 8-(3-chlorophenyl)-N-(4-morpholinophenyl)quinazolin-2-amine] |  |  | 
< 50 | > 50 | > 7.00 | 6.30 to 7.00 |  | C=CC(=O)Nc1cccc(-c2nccc3cnc(Nc4ccc(N5CCOCC5)cc4)nc23)c1 [Example C012, N-(3-(2-((4-morpholinophenyl)amino)pyrido[3,4-d]pyrimidin-8-yl)phenyl)acrylamide] |  |  | 
< 50 | < 50 | < 6.30 | < 6.30 |  | Fc1ccccc1-c1cccc2cnc(Nc3ccc(N4CCOCC4)cc3)nc12 [Example C010, 8-(2-fluorophenyl)-N-(4-morpholinophenyl)quinazolin-2-amine] |  |  | 
